From patent US8710064B2, “2-aryl-4-quinazolinones and their pharmaceutical compositions” (China Medical University, priority 2011, dated 2014)

Columns and labels:
H460 = assay: trypan blue exclusion assay, H460 cells; type: cell-based; details: NCI-H460, H460 human non-small cell lung cancer
Method: (§1) Hep3B (human hepatocellular carcinoma) and H460 (lung non-small carcinoma) cells were grown in monolayer culture in Dulbecco's modified Eagle's medium (DMEM) (Life Technologies, Rockville, Md., USA) containing 5% fetal bovine serum (HyClone, Logan, Utah, USA), 100 U/ml penicillin and 100 μg/ml streptomycin (Gibco BRL, Rockville, Md., USA) and 2 mM glutamine (Merck, Darmstadt, Germany).
(§2) Cell viability was also determined by trypan-blue exclusion assay. Cells were seeded in 6-well plates (2×10^4/well) for trypan blue exclusion assay, and incubated for 24 hours at 37° C. Culture medium containing test compound or DMSO (0.006%) was added to each well, and cells were incubated at 37° C. At indicated time points (0, 24, 48, 72 and 96 hr), cells were suspended with 0.05% trypsin-EDTA, and stained with trypan-blue dye (0.4%) (Sigma). The cell viability was evaluated by the percentage of death relative to the total cell, and cell growth curve was determined by number of live cells relative to the total number of cells.
(§3) The anti-proliferation effects of Compounds 17-31 on M21, CH27, H460, Hep3B and HSC-3 cells were evaluated by the trypan blue exclusion assay.

HSC-3 = assay: trypan blue exclusion assay, HSC-3 cells; type: cell-based, human; details: for IC50: HSC-3 human squamous carcinoma, trypan blue exclusion assay
Method: The HSC-3 (human oral squamous cell carcinoma) were cultured in 1:1 Dulbecco's Modified Eagle's Medium (DMEM) and Ham's Nutrient Mixture F-12, containing 10% FBS (HyClone, Logan, Utah, USA), 100 U/ml penicillin, 100 μg/ml streptomycin (Gibco BRL, Rockville, Md., USA) and 2 mM glutamine (Merck, Darmstadt, Germany).
as §2, §3

Hep3B = assay: trypan blue exclusion assay, Hep3B cells; type: cell-based; details: Hep3B human hepatoma
Method: as §1, §2, §3

CH27 = assay: trypan blue exclusion assay, CH27 cells; type: cell-based; details: CH27 human lung squamous carcinoma
Method: CH27 cells (Human lung squamous carcinoma) were grown in monolayer culture in Dulbecco's modified Eagle's medium (DMEM; Life Technologies, Rockville, Md., USA) containing 5% FBS (HyClone, Logan, Utah, USA), 100 U/ml penicillin, […] streptomycin (Gibco BRL, Rockville, Md., USA) and 2 mM glutamine (Merck, Darmstadt, Germany).
as §2, §3

[1] = tested on: M21, CH27, H460, Hep3B and HSC-3 cells; assay: trypan blue exclusion assay, cancer cell panel (summary); type: cell-based; details: summary of Table 2
Method: as §2, §3

M21 = assay: trypan blue exclusion assay, M21 cells; type: cell-based; details: Homo sapiens; M21 skin cancer; trypan blue exclusion assay; read-out: IC50 M21
Method: M21 cell line (human malignant melanoma) was provided by Dr. Feng-Yao Tang (China Medical University, Taiwan). Cells were grown in monolayer culture in RPMI-1640 medium, Eagle's minimum essential medium or Dulbecco's modified Eagles medium (Invitrogen Corporation, Grand Island, N.Y., USA) containing 10% fetal bovine serum (FBS; HyClone, Logan, Utah, USA), 100 U/ml penicillin and 100 μg/ml streptomycin (Gibco BRL, Rockville, Md., USA).
as §2, §3

[2] = tested on: U87 human glioma cell lines; assay: MTS cell viability assay, U87 glioma cells; type: cell-based; details: 48 hours, mean±SEM, n=3
Method: (§4) The human glioma cell lines U87, U251, T98G, U373, and rat glioma cell line RT2 provided by Dr. Michael Hsiao (Genomics Research Center, Academia Sinica, Taiwan) were cultured in Dulbecco's Modified Eagle medium (DMEM) (Caisson) supplemented with 10% fetal bovine serum (FBS) (Sigma-Aldrich), 2 mM L-glutamine (Caisson), 100 U/ml penicillin, and 100 μg/ml streptomycin (Caisson). The rat glioma C6 cell line provided by Dr. Shun-Fen Tzeng (National Cheng Kung University, Taiwan) was cultured in DMEM/F12 (Caisson) supplemented with 10% fetal bovine serum, 2 mM L-glutamine, 100 U/ml penicillin, and 100 μg/ml streptomycin. The human normal glia cell line SVGP12, kindly provided by Dr. Michael Hsiao, was cultured in Minimum Essential Medium (MEM) (Invitrogen) supplemented with 10% fetal bovine serum, 2 mM L-glutamine, 100 U/ml penicillin, and […]. Primary glia cells were prepared by surgery. Cerebral cortices without meninges were dissected from postnatal (P0-P2) Sprague-Dawley (SD, NCKU Laboratory Animal Center) rats and dissociated in 0.05% trypsin-EDTA (Biowest) at 37° C. for 10 min. Culture medium was added and pipetted for several times, and supernatant was removed after a centrifugation at 1,000 rpm for 5 minutes. […]
(§5) Cell proliferation was determined by MTS (tetrazolium compound, 3-(4,5-dimethylthiazol-2-yl)-5-(3-carboxymethoxyphenyl)-2-(4-sulfophenyl)-2H-tetrazolium) assay (Promega). […] The absorbance of soluble formazan was measured at 490 nm with microplate reader (Molecular device). The cell viability was determined by the percentage of the absorption relative to untreated control. […]
(§6) To investigate the effect of 2-aryl-4-quinazolinone in accordance with the present invention on cell proliferation, glioma cell lines were treated with MJ-66, MJ-68, or MJ-78. […] The cell viability of each group was analyzed by MTS assay (mean±SEM, n=3).

C6 rat glioma = assay: MTS cell viability assay, C6 glioma cells; type: cell-based; details: 48 hours, mean±SEM, n=3
Method: as §4, §5, §6

SMILES | IC50 (H460) [µM] | IC50 (HSC-3) [µM] | activity on HSC-3 cells (HSC-3; summary of Table 2) | IC50 (Hep3B) [µM] | IC50 (CH27) [µM] | cytotoxic effects toward cancer cells [1] | IC50 (M21) [µM] | melting point [°C] | IC50 [2] [µM] | IC50 (C6 rat glioma) [µM]
COc1ccc2nc(-c3cccc4ccccc34)[nH]c(=O)c2c1 [Compound 17, 6-Methoxy-2-(naphthalen-1-yl) quinazolin-4-one] | 0.079 | > 10 | inactive | 1.87 | 0.089 | exhibited cytotoxic effects | 6.09 | – | – | –
COc1ccc2nc(-c3c[nH]c4ccccc34)[nH]c(=O)c2c1 [Compound 18, 6-Methoxy-2-(1H-indol-3-yl) quinazolin-4-one] | > 10 | > 10 | – | > 10 | > 10 | – | > 10 | 311 to 312 | – | –
COc1ccc2nc(-c3csc4ccccc34)[nH]c(=O)c2c1 [Compound 19, 6-Methoxy-2-(benzo[b]thiophen-3-yl) quinazolin-4-one] | > 10 | > 10 | – | > 10 | > 10 | – | > 10 | 289 to 290 | – | –
CN(C)c1ccc2nc(-c3cccc4ccccc34)[nH]c(=O)c2c1 [Compound 20, 6-(N,N-Dimethylamino)-2-(naphthalen-1-yl) quinazolin-4-one] | 0.506 | 0.202 | – | 8.63 | 0.447 | exhibited cytotoxic effects | 3.77 | – | – | –
CN(C)c1ccc2nc(-c3c[nH]c4ccccc34)[nH]c(=O)c2c1 [Compound 21, 6-(N,N-Dimethylamino)-2-(1H-indol-3-yl)quinazolin-4-one] | > 10 | > 10 | – | > 10 | > 10 | – | > 10 | > 300 | – | –
CN(C)c1ccc2nc(-c3csc4ccccc34)[nH]c(=O)c2c1 [Compound 22] | > 10 | > 10 | – | > 10 | > 10 | – | > 10 | > 300 | – | –
O=c1[nH]c(-c2c[nH]c3ccccc23)nc2ccc(N3CCCC3)cc12 [Compound 24, 6-(Pyrrolidin-1-yl)-2-(1H-indol-3-yl)quinazolin-4-one] | 8.81 | 1.89 | – | 7.39 | 8.7 | exhibited cytotoxic effects | 7.63 | – | – | –
O=c1[nH]c(-c2csc3ccccc23)nc2ccc(N3CCCC3)cc12 [Compound 25, 6-(Pyrrolidin-1-yl)-2-(benzo[b]thiophen-3-yl)quinazolin-4-one] | > 10 | > 10 | – | > 10 | > 10 | – | > 10 | > 300 | > 1 | > 1
O=c1[nH]c(-c2cccc3ccccc23)nc2ccc(N3CCCCC3)cc12 [Compound 26, 6-(Piperidin-1-yl)-2-(naphthalen-1-yl)quinazolin-4-one] | 0.376 | 1.73 | – | 7.24 | 0.362 | exhibited cytotoxic effects | 1.59 | – | 0.54 ± 0.24 | 0.47 ± 0.16
O=c1[nH]c(-c2c[nH]c3ccccc23)nc2ccc(N3CCCCC3)cc12 [Compound 27, 6-(Piperidin-1-yl)-2-(1H-indol-3-yl)quinazolin-4-one] | 6.86 | > 10 | – | 5.65 | > 10 | exhibited cytotoxic effects | 8.99 | – | – | –
O=c1[nH]c(-c2csc3ccccc23)nc2ccc(N3CCCCC3)cc12 [Compound 28] | > 10 | > 10 | – | > 10 | > 10 | – | > 10 | > 300 | – | –
O=c1[nH]c(-c2cccc3ccccc23)nc2ccc(N3CCOCC3)cc12 [Compound 29, 6-(Morpholino)-2-(naphthalen-1-yl)quinazolin-4-one] | 0.432 | 0.614 | – | 1.06 | 0.597 | exhibited cytotoxic effects | 2.33 | – | – | –
O=c1[nH]c(-c2c[nH]c3ccccc23)nc2ccc(N3CCOCC3)cc12 [Compound 30, 6-(Morpholino)-2-(1H-indol-3-yl)quinazolin-4-one] | > 10 | > 10 | – | > 10 | > 10 | – | > 10 | > 300 | – | –
O=c1[nH]c(-c2csc3ccccc23)nc2ccc(N3CCOCC3)cc12 [Compound 31, 6-(Morpholino)-2-(benzo[b]thiophen-3-yl) quinazolin-4-one] | > 10 | > 10 | – | > 10 | > 10 | – | > 10 | > 300 | – | –
